In one series the target is T1, CYP2B6 (Homo sapiens, UniProt P20813).
T1 construct: purchased BD Gentest, Becton-Dickinson (Supersomes); host or cells: insect cells
T1 sequence (P20813 1-491): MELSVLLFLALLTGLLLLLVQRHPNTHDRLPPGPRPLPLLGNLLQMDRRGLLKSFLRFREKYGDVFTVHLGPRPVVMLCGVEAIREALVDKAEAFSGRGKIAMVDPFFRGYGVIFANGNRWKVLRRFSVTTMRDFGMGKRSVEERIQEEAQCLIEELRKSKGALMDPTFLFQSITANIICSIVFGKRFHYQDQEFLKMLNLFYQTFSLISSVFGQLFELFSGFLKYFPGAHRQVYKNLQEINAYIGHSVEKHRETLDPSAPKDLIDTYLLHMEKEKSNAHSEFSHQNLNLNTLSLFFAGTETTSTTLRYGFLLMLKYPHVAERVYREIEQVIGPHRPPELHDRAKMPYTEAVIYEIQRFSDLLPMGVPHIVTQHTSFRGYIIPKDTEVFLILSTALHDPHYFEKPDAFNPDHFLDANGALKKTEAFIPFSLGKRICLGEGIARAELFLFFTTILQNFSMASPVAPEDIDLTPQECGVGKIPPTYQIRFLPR
The series can be described thus: Cytochrome P450 inhibition, CYP2B6. The series is classed as in vitro ADME. The conditions noted are these: read-out: IC50 2B6. An excerpt: (§1) K. Assay for Cytochrome P450 Inhibition
(§2) Cytochrome P450 enzymes are implicated in the phase I metabolism of drugs. The majority of drug-drug interactions are metabolism-based and, moreover, these interactions typically involve inhibition of cytochrome P450s. Six CYP450 enzymes (CYP1A2, CYP2C8, CYP2C9, CYP2C19, CYP2D6 and CYP3A4) appear to be commonly responsible for the metabolism of most drugs and the associated drug-drug interactions. Assays to determine the binding of compounds of the invention to the various metabolically important isoforms of cytochrome P450 metabolizing enzymes are commercially available, for example NoAb BioDiscoveries (Mississaugua, ON, Canada) and Absorption Systems (Exton, Pa., USA). As well, a number of appropriate methods have been described or reviewed in the literature. (White, R. E. Ann. Rev. Pharmacol. Toxicol. 2000, 40, 133-157; Li, A. P. Drug. Disc. Today 2001, 6, 357-366; Turpeinen, M.; Korhonen, L. E. Tolonen, A.; et al. Eur. J. Pharm. Sci, 2006, 29, 130-138.)
(§3) The key aspects of the experimental method were as follows: • 1. […] Assays monitored, via fluorescence detection, the formation of a fluorescent metabolite following incubation of the microsomes with a specific CYP substrate. • 3. Compounds of the present invention were tested in duplicate samples at eight test concentrations using 3-fold serial dilutions (concentration range of 0.0457 to 100 μM). • 4. For each CYP-450 enzyme, a specific inhibitor was tested in duplicate at eight concentrations as a positive control. • 5. The concentration of the inhibitor or test compound that inhibited metabolite formation by 50% (IC50) was calculated by non-linear regression analysis of the % inhibition vs. log concentration (M) curve.

In another series the test system is human plasma. The series can be described thus: Plasma protein binding, human plasma (equilibrium dialysis). The series is classed as in vitro ADME. Put shortly: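 Human plasma incubated with test article at several concentrations for 60 min at 37° C. Bound and unbound fractions separated by equilibrium dialysis; unbound concentration quantified by LC-MS or LC-MS-MS.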
On the technique in general: In equilibrium dialysis only unbound substance equilibrates across the membrane.

In a further series the target is T2, CYP2E1 (Homo sapiens, UniProt P05181).
T2 construct: purchased BD Gentest, Becton-Dickinson (Supersomes); host or cells: insect cells
The series is described as follows: Cytochrome P450 inhibition, CYP2E1. It is filed as in vitro ADME. The conditions noted are these: read-out: IC50 2E1.
Source text: as §1, §2, §3

The target of a further series is T3, CYP3A4 (Homo sapiens, UniProt P08684).
T3 construct: purchased BD Gentest, Becton-Dickinson (Supersomes); host or cells: insect cells
The series is described as follows: Cytochrome P450 inhibition, CYP3A4 (two substrates). It is filed as in vitro ADME.
Source text: as §1, §2, §3

Another series concerns rat plasma. The series can be described thus: Plasma protein binding, rat plasma. It is filed as in vitro ADME.
The target in a further series is T4, CYP2D6 (Homo sapiens, UniProt P10635).
T4 construct: purchased BD Gentest, Becton-Dickinson (Supersomes); host or cells: insect cells
The series can be described thus: Cytochrome P450 inhibition, CYP2D6. It is filed as in vitro ADME. The conditions noted are these: read-out: IC50 2D6.
Source text: as §1, §2, §3

Series [1] addresses human growth hormone secretagogue receptor (hGHS-R1a) (Homo sapiens, UniProt Q92847). The series can be described thus: Competitive radioligand binding assay (ghrelin receptor), standard method A.
For a further series, the system named is fasted rats. The series can be described thus: Gastric emptying in fasted rat model, standard method E. The series is classed as in vivo. The conditions noted are these: for Percent Increase in Gastric Emptying After Oral Administration: average where repeated. In short, it runs like this: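 Overnight-fasted male Wistar rats (200 g, n=5/group) received a 2 mL 2% methylcellulose meal labelled with 0.05% phenol red by gavage, then oral test article (typically 1–30 mg/kg) at t=0. At 15 min, stomach phenol red was measured colorimetrically at 560 nm; ≥30% increase in emptying vs vehicle deemed significant (ANOVA/Dunnett).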

[2] abbreviates: CYP3A4, substrate BFC, read-out: IC50 3A4 (BFC).
[3] abbreviates: CYP3A4, substrate BQ, read-out: IC50 3A4 (BQ).
The mark [4] stands for this setting: binding activity at the human ghrelin receptor, standard method A.

Where two headings read alike, the source gives them in different places.

This note sets out measurements from patent publication US10258602B2 (Ocera Therapeutics, Inc., priority 2007, dated 2019).

As a reminder, the IC50 is the point on the concentration scale where inhibition reaches its midpoint. The Ki is a measure of affinity in units of concentration, obtained from inhibition or displacement. Lower therefore signals higher affinity.

T4 sequence (P10635 whole entry): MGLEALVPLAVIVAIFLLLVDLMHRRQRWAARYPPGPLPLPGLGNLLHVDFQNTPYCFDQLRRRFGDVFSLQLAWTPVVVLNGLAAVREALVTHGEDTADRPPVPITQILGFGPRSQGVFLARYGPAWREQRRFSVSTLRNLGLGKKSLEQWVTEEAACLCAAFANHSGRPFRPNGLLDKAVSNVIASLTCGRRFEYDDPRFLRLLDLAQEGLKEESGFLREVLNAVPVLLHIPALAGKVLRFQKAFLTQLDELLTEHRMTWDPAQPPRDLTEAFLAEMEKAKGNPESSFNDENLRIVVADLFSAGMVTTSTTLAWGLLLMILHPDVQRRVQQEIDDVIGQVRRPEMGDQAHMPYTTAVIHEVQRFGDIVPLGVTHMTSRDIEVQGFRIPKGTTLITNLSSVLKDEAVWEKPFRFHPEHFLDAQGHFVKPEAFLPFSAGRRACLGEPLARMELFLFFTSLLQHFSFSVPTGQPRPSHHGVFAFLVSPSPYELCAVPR
T2 sequence (P05181 whole entry): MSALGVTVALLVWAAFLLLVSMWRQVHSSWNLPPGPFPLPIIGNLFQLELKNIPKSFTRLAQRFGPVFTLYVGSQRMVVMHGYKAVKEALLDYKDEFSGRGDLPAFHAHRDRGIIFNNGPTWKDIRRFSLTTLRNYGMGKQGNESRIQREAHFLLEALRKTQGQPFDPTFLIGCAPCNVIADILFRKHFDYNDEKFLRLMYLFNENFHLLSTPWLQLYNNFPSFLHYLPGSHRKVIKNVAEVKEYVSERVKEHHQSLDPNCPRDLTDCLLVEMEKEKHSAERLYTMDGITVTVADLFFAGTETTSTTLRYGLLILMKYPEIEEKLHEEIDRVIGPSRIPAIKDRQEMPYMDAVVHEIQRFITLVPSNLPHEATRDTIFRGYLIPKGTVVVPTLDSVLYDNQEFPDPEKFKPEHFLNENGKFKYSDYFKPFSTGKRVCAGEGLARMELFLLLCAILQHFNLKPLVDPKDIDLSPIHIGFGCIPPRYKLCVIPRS
T3 sequence (P08684 whole entry): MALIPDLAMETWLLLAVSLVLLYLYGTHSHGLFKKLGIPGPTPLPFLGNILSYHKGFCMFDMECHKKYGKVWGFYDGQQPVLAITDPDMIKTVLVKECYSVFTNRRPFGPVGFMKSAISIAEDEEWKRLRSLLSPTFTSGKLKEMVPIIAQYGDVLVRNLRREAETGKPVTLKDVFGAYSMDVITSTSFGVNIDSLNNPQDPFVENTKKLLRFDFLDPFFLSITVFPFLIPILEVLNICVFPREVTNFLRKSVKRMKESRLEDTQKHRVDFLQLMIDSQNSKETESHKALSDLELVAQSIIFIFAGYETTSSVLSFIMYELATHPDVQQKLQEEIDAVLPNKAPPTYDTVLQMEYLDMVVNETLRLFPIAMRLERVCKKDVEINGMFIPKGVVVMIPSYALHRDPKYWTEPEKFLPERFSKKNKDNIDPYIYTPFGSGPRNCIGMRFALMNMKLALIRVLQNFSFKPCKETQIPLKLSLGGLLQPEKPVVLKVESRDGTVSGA
Sequence of human growth hormone secretagogue receptor (hGHS-R1a) (Q92847 whole entry): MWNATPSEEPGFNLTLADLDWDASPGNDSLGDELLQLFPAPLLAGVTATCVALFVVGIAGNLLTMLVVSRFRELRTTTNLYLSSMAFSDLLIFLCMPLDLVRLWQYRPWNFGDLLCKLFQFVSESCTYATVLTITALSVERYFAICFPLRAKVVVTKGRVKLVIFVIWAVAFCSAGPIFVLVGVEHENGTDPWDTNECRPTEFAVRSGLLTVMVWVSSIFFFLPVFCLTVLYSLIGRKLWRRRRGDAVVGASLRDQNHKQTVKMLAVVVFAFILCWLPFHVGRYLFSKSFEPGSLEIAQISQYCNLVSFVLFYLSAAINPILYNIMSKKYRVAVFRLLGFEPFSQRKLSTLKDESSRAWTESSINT

With `CC(C)CC1NC(=O)C(C)N(C)C(=O)C(C2CC2)NCC(C)OC2CCCCC2CCCNC1=O` (mixture of isomers) [Compound 825], the concentration for half-maximal inhibition (IC50) at CYP2B6 is over 100 µM; on CYP2E1, over 100 µM; at CYP3A4 (setting [2]) it was 93.4 µM; on CYP3A4 (setting [3]) it was 6.7 µM; on CYP2D6, over 100 µM. The “Human Plasma Protein Binding (%)” value came to 83% in the series with human plasma (test concentration 1 μg/mL) and 70% in the series with human plasma (test concentration 5 μg/mL). Further, the figures for the “Rat Plasma Protein Binding (%)” value in the series with rat plasma (test concentration 1 μg/mL) and in the series with rat plasma (test concentration 5 μg/mL) were 96.6% and 73%, respectively. Moreover, the Ki in series [1] (setting [4]) was at most 0.01 µM.
`CC1CNC(C2CC2)C(=O)N(C)C(C)C(=O)NC(Cc2ccc(O)cc2)C(=O)NCCCC2CCCCC2O1` (mixture of isomers) [Compound 826]: the IC50 was over 100 µM on CYP2B6; over 100 µM at CYP2E1; 47.5 µM at CYP3A4 (setting [2]); 4.5 µM on CYP3A4 (setting [3]); over 100 µM on CYP2D6. The “Human Plasma Protein Binding (%)” value with human plasma (test concentration 3 μg/mL) turned out to be 94.3%. For the same compound, the “Rat Plasma Protein Binding (%)” value in the series with rat plasma (test concentration 3 μg/mL) was determined as 97.2%. Further, the entries for the “Percent Increase in Gastric Emptying After Oral Administration” value (“Percent Increase” for short) with fasted rats (dose 1 mg/kg), in the series with fasted rats (dose 3 mg/kg) and in the series with fasted rats (dose 10 mg/kg) were 19%, 12% and 30%, respectively. In addition, the Ki in series [1] (setting [4]) is at most 0.1 µM.
Regarding `CC(C)CC1NC(=O)C(C)N(C)C(=O)C(C2CCCCC2)NCC(C)OC2CCCCC2CCCNC1=O` (mixture of isomers) [Compound 828], the IC50 was over 100 µM on CYP2B6; over 100 µM at CYP2E1; 18.7 µM at CYP3A4 (setting [2]); 8.9 µM on CYP3A4 (setting [3]); over 100 µM at CYP2D6. In the series on human plasma (test concentration 3 μg/mL), the “Human Plasma Protein Binding (%)” value was found to be 76.8%. In addition, the “Percent Increase” value with fasted rats (dose 3 mg/kg) was determined as 24%. Moreover, the Ki in series [1] (setting [4]) was at most 0.001 µM.
For the compound `C[C@@H]1C(=O)N[C@H](Cc2ccc(O)cc2)C(=O)NCCCc2cccc3c2O[C@H](CC3)CN[C@@H](C2CC2)C(=O)N1C` [Compound 803], the IC50 is 53.6 µM at CYP2B6, over 100 µM at CYP2E1, 11.5 µM on CYP3A4 (setting [3]) and over 100 µM on CYP2D6. Also, in the series on human plasma (test concentration 1 μg/mL), the “Human Plasma Protein Binding (%)” value is given as 97.8%. Besides, the “Rat Plasma Protein Binding (%)” value in the series with rat plasma (test concentration 1 μg/mL) is given as 99.1%. Also, the Ki in series [1] (setting [4]) is at most 0.1 µM.
Consider `CC(C)C[C@H]1NC(=O)[C@@H](C)N(C)C(=O)[C@H](C2CC2)NC[C@@H](C)Oc2ccccc2CC[C@H](C)NC1=O` [Compound 807], for which the IC50 on CYP2B6 is over 100 µM; at CYP2E1, over 100 µM; at CYP3A4 (setting [2]), 23.3 µM; on CYP3A4 (setting [3]), 6.1 µM; at CYP2D6, over 100 µM. The “Percent Increase” value in the series with fasted rats (dose 1 mg/kg) is on record as 17%; in the series on fasted rats (dose 3 mg/kg) it was 31%; in the series on fasted rats (dose 10 mg/kg), 41%. In the series with fasted rats (oral, up to 24 h post-dose), the “gastric emptying rates remained increased” value is reported as 18-23%. The Ki in series [1] is at most 0.01 µM.
On to `C[C@@H]1C(=O)N[C@H](Cc2ccc(O)cc2)C(=O)NCCCc2ccc(F)cc2OCCN[C@@H](C2CC2)C(=O)N1C` [Compound 809], for which the IC50 on CYP2B6 is over 100 µM; at CYP2E1, over 100 µM; at CYP3A4 (setting [2]), 6.61 µM; on CYP3A4 (setting [3]) it was 1.53 µM; on CYP2D6, over 100 µM. Moreover, the “Human Plasma Protein Binding (%)” value with human plasma (test concentration 3 μg/mL) is listed as 88.4%. Also, in the series with rat plasma (test concentration 3 μg/mL), the “Rat Plasma Protein Binding (%)” value was determined as 92.8%. In addition, the “Percent Increase” value in the series with fasted rats (dose 3 mg/kg) came out at 5%. Moreover, in series [1] (setting [4]), the inhibitory constant (Ki) was at most 0.1 µM.
With `CC(C)C[C@H]1NC(=O)[C@@H](C)N(C)C(=O)[C@H](C2CC2)NCCOc2cc(F)ccc2CCCNC1=O` [Compound 810], the IC50 is 102 µM on CYP2B6; over 100 µM on CYP2E1; 7.42 µM on CYP3A4 (setting [2]); 1.08 µM at CYP3A4 (setting [3]); over 100 µM on CYP2D6. Besides, the “Human Plasma Protein Binding (%)” value in the series on human plasma (test concentration 3 μg/mL) is given as 78.9%. The compound also yielded a Ki in series [1] (setting [4]) of at most 0.1 µM.
Consider `CC1NC(C2CC2)C(=O)N(C)C(C)C(=O)NC(Cc2ccc(O)cc2)C(=O)NCCCc2ccccc2OC1C` (stereo not shown) [Compound 820], for which the IC50 on CYP2B6 was over 100 µM; on CYP2E1, over 100 µM; on CYP3A4 (setting [2]), 47.4 µM; on CYP3A4 (setting [3]) it was 13.8 µM; on CYP2D6 it was over 100 µM. Moreover, the “Human Plasma Protein Binding (%)” value in the series with human plasma (test concentration 3 μg/mL) was 99.0%. The “Rat Plasma Protein Binding (%)” value with rat plasma (test concentration 3 μg/mL) stood at 98.8%. For the same compound, the entries for the “Percent Increase” value with fasted rats (dose 1 mg/kg), in the series with fasted rats (dose 3 mg/kg) and with fasted rats (dose 10 mg/kg) were 6%, 20% and 22%, respectively. This compound also showed a Ki in series [1] (setting [4]) of at most 0.1 µM.
For the compound `CC(C)C[C@H]1NC(=O)[C@@H](C)N(C)C(=O)[C@H](C2CC2)NCCOc2cc(F)ccc2CC[C@H](C)NC1=O` [Compound 822], the IC50 was over 100 µM at CYP2B6; over 100 µM at CYP2E1; 14.2 µM on CYP3A4 (setting [2]); 4.15 µM at CYP3A4 (setting [3]); over 100 µM at CYP2D6. The “Human Plasma Protein Binding (%)” value in the series with human plasma (test concentration 3 μg/mL) is 93.0%. Also, the “Rat Plasma Protein Binding (%)” value in the series with rat plasma (test concentration 3 μg/mL) worked out at 99.1%. In addition, in the series on fasted rats (dose 3 mg/kg), the “Percent Increase” value amounted to 6%. Also, the Ki in series [1] (setting [4]) was at most 0.1 µM.
